These results are taken from patent US10858316B2, “Small molecule inhibitors of the MCL-1 oncoprotein and uses thereof” (University of Maryland, Baltimore, priority 2015, dated 2020).

The target in assay [1] is T1, Mcl-1 (Homo sapiens (Human), UniProt Q07820). As to the kind of experiment: 2D 1H-15N HSQC NMR with 15N-labeled Mcl-1. The format is binding. The note with it: 131 μM 15N-Mcl-1, 182 μM compound. The procedure:
NMR spectra was collected at 25° C. with a Bruker AVANCE 800 NMR spectrometer (800.27 MHz for protons) equipped with pulsed-field gradients, four frequency channels, and triple resonance, z-axis gradient cryogenic probes. A one-second relaxation delay was used, and quadrature detection in the indirect dimensions was obtained with states-TPPI phase cycling; initial delays in the indirect dimensions were set to give zero- and first-order phase corrections of 90° and −180°, respectively. Data were processed using the processing program nmrPipe on Linux workstations. All proton chemical shifts are reported with respect to the H2O or HDO signal, taken to be 4.658 ppm relative to external TSP (0.0 ppm) at 37° C. The ^15N chemical shifts were indirectly referenced using the zero-point frequency at 37° C. of 0.10132905 for ^15N—^1H, as previously described.
All compounds used for NMR were initially suspended in 100% d6-DMSO. The NMR samples contained 131 μM ^15N-labeled Mcl-1, 182 μM compound, 20 mM HEPES, pH 6.8, 50 mM NaCl, 3 mM DTT, 20% D2O, and 5% D6-DMSO.

For assay [2], the target named is T1, Mcl-1. As to the kind of experiment: Fluorescence polarization competition assay (FPCA), Mcl-1 / FITC-Bak BH3 peptide. The class given is binding. The note with it: for Ki: read-out: Mcl-1 Ki. The gist of the method:
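Purified Mcl-1 (affinity tag cleaved, size-exclusion polished) competed against FITC-labeled Bak-BH3 peptide, read by fluorescence polarization. IC50 from Hill-equation fit; Ki derived from IC50 by the Nikolovska-Coleska equation.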
(In general: In fluorescence polarisation assays a small probe gives low polarisation when free and higher when bound to something large.)

The subject of the next assay is A375 melanoma cells. As to the kind of experiment: Cell proliferation / viability, CellTiter-Blue assay, A375. The class given is cell-based, human. The note with it: for IC50: cell titer blue assay, read-out: IC50 inhibition of cell proliferation, A375. The procedure:
(§1) Without being limited to any one theory, the poor efficacy in cells may be attributed to the charged carboxylic acid of 3bl.
The moderate cellular activity of ±-2 may, for instance, be due to limited cell penetration owing to the charged carboxylic acid. Thus, the acetoxymethyl ester ±-12 (R1=CH2OCOCH3) was prepared as a neutral prodrug of ±-2.
(In general: Alamar Blue is a resazurin reagent that responds to reducing activity.)

Another assay concerns SK-MEL-5 melanoma cells. As to the kind of experiment: Cell proliferation, cell titer blue assay, SK-MEL-5. The class given is cell-based.
Text: as §1

The next assay deals with Bcl-xL (Homo sapiens (Human), UniProt Q07817). As to the kind of experiment: Fluorescence polarization competition assay, Bcl-xL. The format is binding. The note with it: Ki from IC50 by Nikolovska-Coleska equation; NA = no activity; read-out: Bcl-xL Ki. As to the method:
Fluorescence polarization experiments were conducted using a BMG PHERAstar FS multimode microplate reader equipped with two PMTs for simultaneous measurements of the perpendicular and parallel fluorescence emission. The assays were performed in black polypropylene 384-well microplate (Costar) with a final volume of 20 microliter. […] Regression analysis was carried out using Origin (OriginLab, Northampton, Mass.) to fit the data to the Hill equation (1) to determine the initial binding affinity (KD) and the IC50 in the FPCA. For the fluorescence polarization competition titrations, an equation derived by Nikolovska-Coleska et al. was used to calculate the Ki from the IC50 data.

The subject of a further assay is HL-60 cell line. As to the kind of experiment: Cell viability of HL-60 cell line after treating with inhibitors for 24 hrs. The class given is cell-based, human. An excerpt:
The moderate cell grow inhibition ability for the two carboxylic acid ester prodrugs 20 and 21 could be attributed to the enzymatic hydrolysis that generated a free acid molecule (13ag) to function as an Mcl-1 inhibitor in the cells.

Setting [3] is: FPCA with FITC-Bak, Ki from IC50 by Nikolovska-Coleska equation.
[4] abbreviates: CellTiter-Blue assay, read-out: GI50, viability of A375 cells.
Where [5] appears, read: read-out: IC50 inhibition of cell proliferation, SK-MEL-5.
Setting [6] is: read-out: HL-60 IC50 0.5% FBS, 0.5% FBS.
[7] abbreviates: read-out: HL-60 IC50 10% FBS, 10% FBS.

Several values for one entry are separate records, joined by “and”; a condition that tells them apart may be missing. Identical values can stand only once. Like-named read-outs stand apart in the source and are kept apart here.

T1 sequence (Q07820 172-327): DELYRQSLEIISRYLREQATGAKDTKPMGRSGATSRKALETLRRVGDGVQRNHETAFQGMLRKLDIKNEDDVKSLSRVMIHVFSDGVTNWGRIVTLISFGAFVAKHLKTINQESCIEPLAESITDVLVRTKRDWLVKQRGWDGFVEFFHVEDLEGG
Chain of Bcl-xL (Q07817 whole entry): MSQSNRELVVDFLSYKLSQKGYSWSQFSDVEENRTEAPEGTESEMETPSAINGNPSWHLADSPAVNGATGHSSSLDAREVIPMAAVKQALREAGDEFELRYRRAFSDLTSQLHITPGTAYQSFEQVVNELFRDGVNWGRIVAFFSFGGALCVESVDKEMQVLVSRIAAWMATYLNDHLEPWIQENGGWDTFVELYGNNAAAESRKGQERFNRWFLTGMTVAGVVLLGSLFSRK

Take `Cc1cc(Oc2ccc(S(=O)(=O)N3CC(C(=O)O)Cc4ccccc43)cc2)cc(C)c1Cl` (racemic) [±-2]: the “Mcl-1 backbone 1H-15N chemical shift perturbation on compound binding” value at Mcl-1 [1] is “significant chemical shift changes”. The inhibition constant Ki (as a rule, a dissociation constant, usually derived from enzyme kinetics or from competition with a known ligand) on Mcl-1 [2] (setting [3]) turned out to be 0.12 ± 0.053 µM; at Mcl-1 [2] (FPCA), 0.12 µM. Moreover, the GI50 – broadly, the concentration giving 50% growth inhibition – in the assay on A375 melanoma cells (setting [4]) was found to be 50 µM; in the assay on A375 melanoma cells (read-out: GI50, viability of A375 melanoma cells), 50 µM.

In the case of `CC(=O)OCOC(=O)C1Cc2ccccc2N(S(=O)(=O)c2ccc(Oc3cc(C)c(Cl)c(C)c3)cc2)C1` (racemic) [±-12], the inhibition constant Ki at Mcl-1 [2] (FPC assay) and on Mcl-1 [2] (setting [3]) was more than 500 µM throughout. Moreover, the 50% growth inhibitory concentration (GI50) in the assay on A375 melanoma cells (setting [4]) is 73 µM.

In the case of `CC(=O)OCOC(=O)c1cc(S(=O)(=O)N(CC(C)C)c2ccc(OC(C)C)cc2)c2ccccc2c1O` [Compound 14], the “Binding affinity to Mcl-1 in vitro” value at Mcl-1 [2] (FPCA) was “no binding affinity”. For the same compound, the IC50 in the assay on A375 melanoma cells and in the assay on SK-MEL-5 melanoma cells (setting [5]) was 15 µM in each case.

As for `CC(C)CN(c1ccc(OC(C)C)cc1)S(=O)(=O)c1cc(C(=O)O)c(O)c2ccccc12` [Compound 3ba, 1-Hydroxy-4-(N-isobutyl-N-(4-isopropoxyphenyl)sulfamoyl)-2-naphthoic Acid], the Ki on Bcl-xL was 6.08 ± 0.81 µM; on Mcl-1 [2] (setting [3]) it was 0.487 µM. Also, the “Mcl-1 backbone 1H-15N chemical shift perturbation on compound binding” value at Mcl-1 [1] is given as “perturbation of the chemical shifts”. The IC50 with A375 melanoma cells (Homo sapiens, A-375) came to 150 µM.

Consider `Cc1cc(Oc2ccc(S(=O)(=O)N(CC(C)C)c3ccc(C(=O)O)c(O)c3)cc2)cc(C)c1Cl` [4jc117-5 13ak], for which the Ki was 1.63 ± 0.177 µM on Bcl-xL, 0.778 ± 0.05 µM on Mcl-1 [2] (setting [3]) and 0.778 µM on Mcl-1 [2] (FPCA). Moreover, the “Mcl-1 backbone 1H-15N chemical shift perturbation on compound binding” value at Mcl-1 [1] was “R263 and T266 were both perturbed”.

Take `CC(C)CN(c1ccc(C(=O)O)c(O)c1)S(=O)(=O)c1ccc(Oc2ccccc2)cc1` [LC-4-099 13ag]: the IC50 in the assay with HL-60 cell line (setting [6]) was 18.5 µM; in the assay on HL-60 cell line (setting [7]), more than 120 µM. Besides, the inhibition constant Ki on Bcl-xL is 18 ± 4.6 µM; at Mcl-1 [2] (setting [3]), 5.77 µM and 5.8 µM.

Consider `COC(=O)c1cc(S(=O)(=O)N(CC(C)C)c2ccc(OC(C)C)cc2)c2ccccc2c1O` [Compound 13], for which the “Binding affinity to Mcl-1 in vitro” value at Mcl-1 [2] (FPCA) was “no binding affinity”. In addition, the IC50 in the assay on A375 melanoma cells and in the assay with SK-MEL-5 melanoma cells (setting [5]) was approximately 300 µM throughout.

Consider `Cc1cc(Oc2ccc(N(Cc3ccccc3)S(=O)(=O)c3cc(C(=O)O)c(O)c4ccccc34)cc2)cc(C)c1Cl` [Compound 3bl, 4-(N-Benzyl-N-(4-(4-chloro-3,5-dimethylphenoxy)phenyl)sulfamoyl)-1-hydroxy-2-naphthoic Acid], for which the values for the Ki on Bcl-xL and at Mcl-1 [2] (FPCA) were 0.34 ± 0.13 µM and 0.031 µM, respectively. The IC50 with A375 melanoma cells (Homo sapiens, A-375) was found to be 50 µM; in the assay with SK-MEL-5 melanoma cells (Homo sapiens, SK-MEL-5, read-out: IC50 inhibition of cell proliferation, SK-MEL-5), 90 µM.

With `Cc1cc(Oc2ccc(S(=O)(=O)N(Cc3ccccc3)c3ccc(C(=O)O)c(O)c3)cc2)cc(C)c1Cl` [LC-4-118 13cc], the IC50 was less than 7.5 µM in the assay with HL-60 cell line (setting [6]) and 53.2 µM with HL-60 cell line (setting [7]). Also, the inhibition constant (Ki) on Bcl-xL is 1.67 ± 0.351 µM; at Mcl-1 [2] (setting [3]), 0.659 µM and 0.629 µM.
